For data set [1], the target named is T1, BTK (Mus musculus, UniProt P35991).
T1 construct: from tissue; host or cells: whole blood or spleen of CD-1 or BALB/c mice
Kind of data set: Mouse BTK degradation assay with oral dosing. The conditions noted are these: CD-1 or BALB/c mice, oral gavage (PO); Yes = significant BTK degradation upon oral dosage. The data set is classed as in vivo. The procedure:
Example 68: Mouse BTK Degradation Assay with Oral Dosing
A method of determining the pharmacodynamic profile of compounds of the present invention (experimental compound) was performed by dosing either CD-1 or BALB/c mice with the compound. The experimental compound was prepared in a suitable formulation and was administered via oral gavage (PO) at a suitable dose level and frequency as informed by prior pharmacokinetic and tolerability studies. Following administration of the experimental compound, BTK levels in blood or splenocytes are measured using flow cytometry or HTRF. For assessment of BTK levels via flow cytometry, either whole blood or spleen were first treated with ACK RBC lysis buffer to facilitate lysing of red blood cells. Remaining cells were then stained with fluorophore-conjugated antibodies against CD45, TCR beta and CD45R (B220). Cell pellets were washed with 1×PBS and fixed and permeabilized for 24 hrs with Foxp3/Transcription Factor Fixation/Permeabilization Kit. Cells were then stained intracellularly with unconjugated BTK antibody and detected with a fluorophore-conjugated secondary antibody. Stained cells were run on an Attune NxT Acoustic Focusing Flow Cytometer (Thermo-Fisher A29004), and data was analyzed using FlowJo (v10.5.3) and GraphPad Prism (v7.00) software. Lymphocytes were gated for B cells defined as CD45+ TCR beta− B220+ and T cells as CD45+ TCR beta+ B220−. The BTK geometric mean fluorescence intensity (MFI) was calculated for B and T cells. Percent BTK degradation for each experimental compound treated sample was calculated using the equation described below: […]

The target in data set [2] is T2, BTK (Homo sapiens, UniProt Q06187).
T2 construct: endogenous in cells; host or cells: TMD8 cells
Kind of data set: Cellular BTK HTRF assay (BTK degradation) in TMD8 cells. The data set is classed as cell-based. Particulars: four hours incubation, Total-BTK HTRF relative to DMSO-treated cells. A digest of the protocol: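 TMD8 cells were treated with compounds (final DMSO <0.200) for four hours at 37° C, 5% CO2, then lysed for 30 minutes. Total BTK was measured by two-antibody HTRF, taking the 665/620 nm ratio with background subtracted and expressed relative to DMSO-treated cells. DC50 came from four-parameter nonlinear regression.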
On the technique in general: In TR-FRET formats the signal depends on donor and acceptor labels being close together.

Each structure is given as a SMILES string.

T2 sequence (Q06187 whole entry): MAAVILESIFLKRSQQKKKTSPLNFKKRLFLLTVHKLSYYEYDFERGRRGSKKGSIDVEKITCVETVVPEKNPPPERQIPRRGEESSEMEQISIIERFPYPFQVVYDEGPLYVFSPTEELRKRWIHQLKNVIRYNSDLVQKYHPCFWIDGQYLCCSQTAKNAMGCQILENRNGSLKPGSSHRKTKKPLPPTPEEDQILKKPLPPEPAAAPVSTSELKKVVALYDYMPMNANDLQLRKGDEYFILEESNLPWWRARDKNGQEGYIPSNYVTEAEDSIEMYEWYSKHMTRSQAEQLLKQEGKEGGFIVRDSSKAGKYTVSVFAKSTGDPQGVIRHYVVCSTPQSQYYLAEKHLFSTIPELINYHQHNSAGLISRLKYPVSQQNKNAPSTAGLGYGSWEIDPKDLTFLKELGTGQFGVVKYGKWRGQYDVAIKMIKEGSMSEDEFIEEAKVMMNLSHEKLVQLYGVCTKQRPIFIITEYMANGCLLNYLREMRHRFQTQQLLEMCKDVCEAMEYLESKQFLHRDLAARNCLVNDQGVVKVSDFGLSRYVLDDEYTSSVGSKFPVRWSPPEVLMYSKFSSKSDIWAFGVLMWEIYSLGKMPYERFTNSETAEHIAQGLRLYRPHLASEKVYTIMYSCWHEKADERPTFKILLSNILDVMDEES
T1 sequence (P35991 whole entry): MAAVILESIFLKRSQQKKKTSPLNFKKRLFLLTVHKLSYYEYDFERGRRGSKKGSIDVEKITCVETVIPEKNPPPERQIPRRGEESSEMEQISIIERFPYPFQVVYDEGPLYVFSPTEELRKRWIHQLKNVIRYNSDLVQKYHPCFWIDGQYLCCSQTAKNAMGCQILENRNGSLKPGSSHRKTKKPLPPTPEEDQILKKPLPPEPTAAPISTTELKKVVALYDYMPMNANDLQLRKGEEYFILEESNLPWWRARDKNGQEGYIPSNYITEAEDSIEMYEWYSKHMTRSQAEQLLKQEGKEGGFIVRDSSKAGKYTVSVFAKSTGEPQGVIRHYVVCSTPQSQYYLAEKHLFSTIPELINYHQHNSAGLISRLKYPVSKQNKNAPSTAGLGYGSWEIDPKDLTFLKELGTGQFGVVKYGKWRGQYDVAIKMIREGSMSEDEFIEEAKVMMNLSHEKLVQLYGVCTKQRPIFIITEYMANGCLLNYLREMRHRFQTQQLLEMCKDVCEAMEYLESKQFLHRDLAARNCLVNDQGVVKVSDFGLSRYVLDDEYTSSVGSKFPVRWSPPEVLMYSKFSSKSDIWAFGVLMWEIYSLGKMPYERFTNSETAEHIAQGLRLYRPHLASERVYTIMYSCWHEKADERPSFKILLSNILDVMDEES

Usually DC50 stands for the concentration at which degradation of the target reaches its halfway point. A low value points to degradation at low concentration. In the case of `CN1CCN([C@@H]2CCCN(c3cnc(C(N)=O)c(Nc4ccc(C5CCN(C[C@H]6CCN(c7ccc8c(c7)C(=O)N(C7CCC(=O)NC7=O)C8=O)C6)CC5)cc4)n3)C2)C1=O` (stereo partly shown) [Compound 44], in data set [1], the “BTK degradation after oral dosing” value is “Yes”. In data set [2], this compound showed a DC50 of less than 5 nM.
For the compound `NC(=O)c1ncc(N2CCC[C@H](N3CCOC3=O)C2)nc1Nc1ccc(N2CCC(C3CN(c4ccc5c(c4)C(=O)N(C4CCC(=O)NC4=O)C5=O)C3)CC2)cc1` (stereo partly shown) [Compound 70], in data set [1], the “BTK degradation after oral dosing” value is “Yes”. This compound showed a DC50 in data set [2] of less than 5 nM.
In the case of `CN1CCN([C@@H]2CCCN(c3cnc(C(N)=O)c(Nc4ccc(C5(C)CCN(C[C@H]6CCN(c7ccc8c(c7)C(=O)N(C7CCC(=O)NC7=O)C8=O)C6)CC5)cc4)n3)C2)C1=O` (stereo partly shown) [Compound 71], the “BTK degradation after oral dosing” value in data set [1] is recorded as “Yes”. This compound also had a half-maximal degradation concentration (DC50) in data set [2] of less than 5 nM.
The matching figures for `CN1CCN([C@@H]2CCCN(c3cnc(C(N)=O)c(Nc4ccc(C5CCN(CC6CCN(c7ccc8c(=O)n(C9CCC(=O)NC9=O)ccc8c7)CC6)CC5)cc4)n3)C2)C1=O` (stereo partly shown) [Compound 72]: “Yes” and less than 5 nM.
The matching figures for `NC(=O)c1ncc(N2CCC[C@@H](N3CCOC3=O)C2)nc1Nc1ccc(C2CCN(C[C@H]3CCN(c4ccc5c(c4)C(=O)N(C4CCC(=O)NC4=O)C5=O)C3)CC2)cc1` (stereo partly shown) [Compound 73]: “Yes” and less than 5 nM.
Consider `CN1CCN([C@H]2CCCN(c3cnc(C(N)=O)c(Nc4ccc(C5(C)CCN(C6CN(c7ccc8c(c7)C(=O)N(C7CCC(=O)NC7=O)C8=O)C6)CC5)cc4)n3)C2)C1=O` (stereo partly shown) [Compound 74], for which the “BTK degradation after oral dosing” value in data set [1] is on record as “Yes”. This compound also came in with a DC50 in data set [2] of less than 5 nM.
The matching figures for `Cn1cc(Nc2nc(N3CCC[C@H](N4CC5(CN(CC6CCN(c7ccc(C(=O)NC8CCC(=O)NC8=O)nc7)CC6)C5)OC4=O)C3)cnc2C(N)=O)cn1` (stereo partly shown) [Compound 131]: “Yes” and less than 5 nM.
For `NC(=O)c1ncc(-c2nccs2)nc1Nc1ccc(N2CCC3(CCN(Cc4ccc5c(c4)C(=O)N(C4CCC(=O)NC4=O)C5=O)CC3)CC2)cc1` (stereo not shown) [Compound 150] the same measures were “Yes” and 5 to 15 nM.

For the origin of these results see patent US11479556B1, “Bifunctional compounds for degrading BTK via ubiquitin proteosome pathway” (NURIX THERAPEUTICS, INC., priority 2018, dated 2022).
